The source made the active and inactive calls.
How the values were obtained:
[1] = molecular target: Peroxisome proliferator-activated receptor gamma/Nuclear receptor coactivator 2 (Homo sapiens, UniProt P37231); assay: (§1) TR-FRET dose response biochemical High Throughput Screening assay for agonists of the steroid receptor coactivator 2 (SRC-2) recruitment by the peroxisome proliferator-activated receptor gamma (PPAR gamma): non-selective agonists. [Related pubchem assays: 1297, 1032 ]; type: functional
[2] = molecular target: Peroxisome proliferator-activated receptor gamma/Nuclear receptor coactivator 3 (Homo sapiens, UniProt P37231); assay: as §1, with “3 (SRC-3)” for “2 (SRC-2)”, “1301 (Confirmation screen.), 1048 (Primary screen.)]” for “1297, 1032 ]”; type: functional
Sequence of Peroxisome proliferator-activated receptor gamma/Nuclear receptor coactivator 3 (P37231 whole entry): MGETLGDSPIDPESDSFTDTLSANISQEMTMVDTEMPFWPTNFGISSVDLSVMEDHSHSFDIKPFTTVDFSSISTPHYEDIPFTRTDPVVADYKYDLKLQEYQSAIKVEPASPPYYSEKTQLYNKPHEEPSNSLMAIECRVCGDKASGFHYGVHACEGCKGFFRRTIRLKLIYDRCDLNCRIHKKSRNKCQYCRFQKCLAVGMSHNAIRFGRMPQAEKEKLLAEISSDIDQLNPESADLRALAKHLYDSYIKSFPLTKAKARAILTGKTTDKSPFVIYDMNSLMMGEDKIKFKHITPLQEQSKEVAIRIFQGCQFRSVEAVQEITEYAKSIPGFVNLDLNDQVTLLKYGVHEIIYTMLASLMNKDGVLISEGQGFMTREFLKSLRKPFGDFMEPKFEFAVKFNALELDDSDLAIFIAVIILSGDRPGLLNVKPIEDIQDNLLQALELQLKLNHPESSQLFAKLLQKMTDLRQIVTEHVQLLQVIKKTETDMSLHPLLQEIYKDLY
Sequence of Peroxisome proliferator-activated receptor gamma/Nuclear receptor coactivator 3 (Q9Y6Q9 whole entry, further chain): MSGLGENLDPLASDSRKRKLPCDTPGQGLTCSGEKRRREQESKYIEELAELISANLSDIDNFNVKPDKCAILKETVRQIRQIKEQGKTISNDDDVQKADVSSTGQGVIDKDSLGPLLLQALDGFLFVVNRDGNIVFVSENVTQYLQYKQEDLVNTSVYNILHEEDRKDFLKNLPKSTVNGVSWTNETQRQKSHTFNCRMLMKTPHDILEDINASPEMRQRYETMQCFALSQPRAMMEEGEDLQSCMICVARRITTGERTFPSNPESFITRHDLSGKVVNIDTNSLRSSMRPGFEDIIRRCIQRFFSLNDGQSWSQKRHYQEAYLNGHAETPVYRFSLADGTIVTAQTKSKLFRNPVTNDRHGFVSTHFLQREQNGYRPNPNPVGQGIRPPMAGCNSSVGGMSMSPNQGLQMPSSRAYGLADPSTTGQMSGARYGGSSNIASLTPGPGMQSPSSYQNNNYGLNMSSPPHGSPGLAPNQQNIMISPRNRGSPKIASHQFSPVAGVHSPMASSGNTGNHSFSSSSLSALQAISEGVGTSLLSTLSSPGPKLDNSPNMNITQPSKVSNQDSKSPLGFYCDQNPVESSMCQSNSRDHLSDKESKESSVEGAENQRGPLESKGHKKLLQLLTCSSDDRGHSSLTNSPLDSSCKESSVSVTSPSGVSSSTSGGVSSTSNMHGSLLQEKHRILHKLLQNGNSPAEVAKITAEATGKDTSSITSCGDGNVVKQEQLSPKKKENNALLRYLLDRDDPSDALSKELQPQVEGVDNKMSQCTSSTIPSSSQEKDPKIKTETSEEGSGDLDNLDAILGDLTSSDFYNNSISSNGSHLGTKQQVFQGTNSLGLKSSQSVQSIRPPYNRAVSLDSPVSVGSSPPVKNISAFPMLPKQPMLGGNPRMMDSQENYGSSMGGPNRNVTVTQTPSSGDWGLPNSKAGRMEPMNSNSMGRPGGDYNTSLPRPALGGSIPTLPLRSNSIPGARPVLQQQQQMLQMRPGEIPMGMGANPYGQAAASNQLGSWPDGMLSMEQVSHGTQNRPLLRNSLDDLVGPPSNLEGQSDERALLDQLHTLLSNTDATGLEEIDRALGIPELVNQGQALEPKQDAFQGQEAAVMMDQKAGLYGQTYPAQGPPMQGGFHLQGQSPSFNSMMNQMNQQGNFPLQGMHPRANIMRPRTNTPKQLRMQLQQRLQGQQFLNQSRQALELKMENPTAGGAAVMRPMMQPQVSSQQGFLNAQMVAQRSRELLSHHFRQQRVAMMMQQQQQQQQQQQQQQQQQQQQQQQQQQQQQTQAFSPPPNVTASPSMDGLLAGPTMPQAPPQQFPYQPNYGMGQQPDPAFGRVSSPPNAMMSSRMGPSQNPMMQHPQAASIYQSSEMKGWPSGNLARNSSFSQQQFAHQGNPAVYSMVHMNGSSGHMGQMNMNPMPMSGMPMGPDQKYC

[3] = molecular target: Peroxisome proliferator-activated receptor gamma/Nuclear receptor coactivator 1 (Homo sapiens, UniProt P37231); assay: as §1, with “1 (SRC-1)” for “2 (SRC-2)”, “assays (depositor defined):AID1300, AID1808, AID504735, AID631]” for “assays: 1297, 1032 ]”; type: protein assay
Sequence of Peroxisome proliferator-activated receptor gamma/Nuclear receptor coactivator 1 (P37231 whole entry): as the sequence (P37231 whole entry) above
Sequence of Peroxisome proliferator-activated receptor gamma/Nuclear receptor coactivator 1 (Q15788 whole entry, further chain): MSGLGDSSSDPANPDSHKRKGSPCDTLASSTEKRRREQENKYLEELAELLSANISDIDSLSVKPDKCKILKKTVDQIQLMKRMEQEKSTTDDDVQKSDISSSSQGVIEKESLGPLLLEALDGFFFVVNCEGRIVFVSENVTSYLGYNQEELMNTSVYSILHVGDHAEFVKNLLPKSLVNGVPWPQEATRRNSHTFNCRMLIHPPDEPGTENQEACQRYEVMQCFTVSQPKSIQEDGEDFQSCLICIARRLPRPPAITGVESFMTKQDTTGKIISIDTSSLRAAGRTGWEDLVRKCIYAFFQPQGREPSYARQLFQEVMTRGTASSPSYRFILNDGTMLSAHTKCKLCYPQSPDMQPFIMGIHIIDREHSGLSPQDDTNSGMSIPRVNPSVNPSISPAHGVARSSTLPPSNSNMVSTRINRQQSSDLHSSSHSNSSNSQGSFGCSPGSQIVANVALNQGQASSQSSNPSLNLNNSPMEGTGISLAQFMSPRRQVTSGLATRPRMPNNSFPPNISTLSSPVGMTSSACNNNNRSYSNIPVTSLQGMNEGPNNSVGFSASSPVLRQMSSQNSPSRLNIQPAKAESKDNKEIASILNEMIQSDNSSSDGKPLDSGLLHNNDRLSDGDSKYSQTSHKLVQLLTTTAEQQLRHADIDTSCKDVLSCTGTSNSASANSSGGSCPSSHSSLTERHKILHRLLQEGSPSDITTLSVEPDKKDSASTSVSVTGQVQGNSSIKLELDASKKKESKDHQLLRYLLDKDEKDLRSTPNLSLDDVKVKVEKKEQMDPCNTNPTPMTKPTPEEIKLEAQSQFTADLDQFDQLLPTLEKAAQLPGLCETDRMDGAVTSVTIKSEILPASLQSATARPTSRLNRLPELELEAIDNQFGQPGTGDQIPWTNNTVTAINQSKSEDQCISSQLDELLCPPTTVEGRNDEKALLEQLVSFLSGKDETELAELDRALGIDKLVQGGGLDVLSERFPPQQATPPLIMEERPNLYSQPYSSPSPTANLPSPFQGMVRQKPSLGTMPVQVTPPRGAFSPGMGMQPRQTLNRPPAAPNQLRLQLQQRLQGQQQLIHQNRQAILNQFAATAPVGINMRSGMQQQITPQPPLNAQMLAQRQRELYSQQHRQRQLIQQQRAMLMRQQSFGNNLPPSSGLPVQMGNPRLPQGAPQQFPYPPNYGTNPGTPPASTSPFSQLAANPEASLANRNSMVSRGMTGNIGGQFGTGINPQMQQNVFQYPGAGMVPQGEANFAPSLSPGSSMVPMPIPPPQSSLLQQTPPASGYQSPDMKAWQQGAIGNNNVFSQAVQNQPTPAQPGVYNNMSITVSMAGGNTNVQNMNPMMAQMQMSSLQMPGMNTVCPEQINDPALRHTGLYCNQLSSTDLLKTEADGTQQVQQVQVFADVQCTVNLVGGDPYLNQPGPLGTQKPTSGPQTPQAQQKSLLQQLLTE

[4] = molecular target: Cytochrome P450 3A4 (Homo sapiens, UniProt P08684);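 further: CYP3A4 tested as one member of a cytochrome P450 panel screen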
Sequence of Cytochrome P450 3A4 (P08684 whole entry): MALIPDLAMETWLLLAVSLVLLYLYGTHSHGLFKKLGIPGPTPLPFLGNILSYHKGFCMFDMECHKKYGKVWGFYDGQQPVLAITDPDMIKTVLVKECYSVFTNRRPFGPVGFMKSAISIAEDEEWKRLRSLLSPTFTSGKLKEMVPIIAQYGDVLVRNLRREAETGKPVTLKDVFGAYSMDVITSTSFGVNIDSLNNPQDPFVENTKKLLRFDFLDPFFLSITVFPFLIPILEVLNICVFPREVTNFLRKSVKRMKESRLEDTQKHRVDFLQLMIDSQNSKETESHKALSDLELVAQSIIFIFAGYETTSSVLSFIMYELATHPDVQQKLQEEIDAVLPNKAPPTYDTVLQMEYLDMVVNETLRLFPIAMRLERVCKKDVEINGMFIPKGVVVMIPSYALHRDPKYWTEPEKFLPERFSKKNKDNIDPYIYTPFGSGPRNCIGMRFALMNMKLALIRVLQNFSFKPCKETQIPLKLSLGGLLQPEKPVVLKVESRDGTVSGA

[5] = molecular target: Glyceraldehyde-3-phosphate dehydrogenase (Homo sapiens, UniProt P04406)
Sequence of Glyceraldehyde-3-phosphate dehydrogenase (P04406 whole entry): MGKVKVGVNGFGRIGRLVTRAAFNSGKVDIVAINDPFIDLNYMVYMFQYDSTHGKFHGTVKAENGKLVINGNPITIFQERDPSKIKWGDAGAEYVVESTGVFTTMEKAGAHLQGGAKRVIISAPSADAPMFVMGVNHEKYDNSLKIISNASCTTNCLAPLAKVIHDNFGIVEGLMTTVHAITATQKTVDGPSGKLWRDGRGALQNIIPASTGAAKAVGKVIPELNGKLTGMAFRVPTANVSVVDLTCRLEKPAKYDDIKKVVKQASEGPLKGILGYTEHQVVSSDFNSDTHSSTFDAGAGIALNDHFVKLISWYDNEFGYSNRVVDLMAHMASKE

[6] = molecular target: T1, Alkaline phosphatase, tissue-nonspecific isozyme (Homo sapiens, UniProt P05186); assay: human TNAP enzyme inhibitors, SAR follow-up, biochemical, luminescent, dose response (AID 1056)
T1 sequence (P05186 whole entry): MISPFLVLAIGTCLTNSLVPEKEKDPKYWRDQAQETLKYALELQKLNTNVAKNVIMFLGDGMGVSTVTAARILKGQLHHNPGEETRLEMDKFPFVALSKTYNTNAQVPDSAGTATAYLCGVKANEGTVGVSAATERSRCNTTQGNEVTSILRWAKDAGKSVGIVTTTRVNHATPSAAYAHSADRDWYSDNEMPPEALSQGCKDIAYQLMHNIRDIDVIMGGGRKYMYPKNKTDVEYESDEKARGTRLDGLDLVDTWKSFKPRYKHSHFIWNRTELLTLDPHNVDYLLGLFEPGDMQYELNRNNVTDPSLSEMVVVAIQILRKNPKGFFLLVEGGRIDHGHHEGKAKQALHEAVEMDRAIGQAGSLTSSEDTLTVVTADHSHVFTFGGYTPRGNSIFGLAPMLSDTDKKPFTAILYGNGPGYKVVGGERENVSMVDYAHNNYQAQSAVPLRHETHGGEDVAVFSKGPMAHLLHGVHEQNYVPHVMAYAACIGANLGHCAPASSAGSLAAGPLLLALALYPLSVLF

[7] = molecular target: T2, Cytochrome P450 1A2 (Homo sapiens, UniProt P05177);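 further: PubChem cytochrome P450 panel assay, CYP1A2 panel member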
T2 sequence (P05177 whole entry): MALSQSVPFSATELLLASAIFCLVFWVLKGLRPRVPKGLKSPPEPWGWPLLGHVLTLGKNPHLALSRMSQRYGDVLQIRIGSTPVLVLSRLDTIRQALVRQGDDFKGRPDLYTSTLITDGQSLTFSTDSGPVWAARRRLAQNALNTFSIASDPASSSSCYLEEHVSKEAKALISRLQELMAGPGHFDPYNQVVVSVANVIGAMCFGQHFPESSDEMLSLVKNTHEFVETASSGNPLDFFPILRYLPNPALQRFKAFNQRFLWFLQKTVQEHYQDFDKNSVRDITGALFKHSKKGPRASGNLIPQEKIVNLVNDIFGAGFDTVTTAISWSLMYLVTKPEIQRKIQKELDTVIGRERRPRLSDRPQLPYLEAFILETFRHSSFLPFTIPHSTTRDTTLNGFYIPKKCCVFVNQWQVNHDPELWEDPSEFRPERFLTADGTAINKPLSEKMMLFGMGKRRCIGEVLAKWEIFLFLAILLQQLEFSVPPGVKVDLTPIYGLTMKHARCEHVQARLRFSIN

[8] = molecular target: Cytochrome P450 2D6 (Homo sapiens, UniProt P10635);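 further: CYP2D6 member of a cytochrome P450 panel assay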
[9] = molecular target: Protein Wnt-3a (Mus musculus, UniProt P27467); assay: Wnt3a-driven reporter signaling inhibition, dose response, selectivity assay for Gli-SUFU antagonist project, Wnt-LIGHT cells, luminescence (AID 651570); type: functional; settings: read-out: IC50_Mean;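 further: Wnt-LIGHT reporter cells stimulated with conditioned medium from Wnt3a-producing cells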
Sequence of Protein Wnt-3a (P27467 whole entry): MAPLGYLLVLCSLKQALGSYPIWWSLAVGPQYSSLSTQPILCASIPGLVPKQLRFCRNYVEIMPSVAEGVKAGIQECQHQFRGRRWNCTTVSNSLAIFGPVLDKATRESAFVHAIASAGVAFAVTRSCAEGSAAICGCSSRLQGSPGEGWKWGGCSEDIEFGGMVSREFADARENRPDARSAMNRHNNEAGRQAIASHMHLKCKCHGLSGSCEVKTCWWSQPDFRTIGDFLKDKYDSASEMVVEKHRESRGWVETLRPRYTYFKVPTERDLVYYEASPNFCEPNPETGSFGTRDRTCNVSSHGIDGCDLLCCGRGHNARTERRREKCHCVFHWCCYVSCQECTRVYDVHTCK

[10] = molecular target: Cytochrome P450 2C9 (Homo sapiens, UniProt P11712)
[11] = molecular target: Cytochrome P450 2C19 (Homo sapiens, UniProt P33261); assay: Cytochrome panel assay with activity outcomes. Panel member name: p450-cyp2c19 Compounds with AC50 equal or less than 10 uM are considered active; type: functional
[12] = inhibitors of intracellular T. cruzi replication, confirmation, NIH3T3 host cells, beta-gal luminescence (AID 2044); type: functional, cell-based;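 further: intracellular parasites grown in NIH/3T3 mouse fibroblasts as host cells; luminescent beta-galactosidase reporter signal from transgenic T. cruzi replicating inside host cells; inhibitors lower the luminescence signal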
[13] = microbe, parasite or virus in culture; type: functional; settings: Mycobacterium tuberculosis
[14] = cytotoxicity toward NIH3T3 fibroblasts, dose response, counter-screen, cell-based, ATP luminescence, mouse fibroblasts (AID 2010); type: functional;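 further: cells exposed to compound for about 90 hours before reading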
[15] = Luminescence Cell-Based Dose Retest to Confirm Inhibitors of Cancer Stem Cells. [Related pubchem assays (depositor defined):AID2717, AID2721]; type: functional; settings: Homo sapiens
[16] = molecular target: Voltage-dependent T-type calcium channel subunit alpha-1H (Homo sapiens, UniProt O95180); type: functional;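 further: channel activity triggered by adding a high calcium stimulation buffer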

For COC(=O)c1c(C)[nH]c(C(=O)C(C)Sc2nnc(-c3cc(OC)c(OC)c(OC)c3)o2)c1C (stereo not given), the EC50 [1] was > 79.4 µM (not active), the EC50 [2] was > 79.4 µM (not active) and the EC50 [3] was > 79.4 µM (inactive).
For O=C(Nc1ccccc1)N1CCC2(CC1)CCN(C(=O)Oc1ccccc1)CC2, the AC50 [4] was “inconclusive”.
With NC(=O)c1cn(S(=O)(=O)c2ccc3ccccc3c2)c2ccccc12 the IC50 [5] was > 100 µM (not active) and the IC50 [6] was > 100 µM (inactive).
With CN1CCN(c2ncc3nc(-c4ccc(Cl)cc4)c(=O)n(Cc4ccc(F)cc4)c3n2)CC1 the AC50 [4] was “inconclusive”, the AC50 [7] was 31.6 µM (inconclusive) and the AC50 [8] was 39.8 µM (inconclusive).
For COc1cccc(-c2cc(C(=O)O)[nH]n2)c1, the IC50 [5] was > 100 µM (not active) and the IC50 [6] was > 100 µM (inactive).
For CCOC(=O)N1CCN(C(=O)c2ccc(CSc3ccc(Cl)cc3)cc2)CC1, the IC50 [9] was 15.6 µM (active).
With CC(=O)c1sc(NC(=O)C(C)C)nc1C the AC50 [10] was 39.8 µM (inconclusive), the AC50 [11] was “inconclusive” and the EC50 [1] was > 26.5 µM (not active). The EC50 [2] was > 79.4 µM (not active) and the EC50 [3] was > 79.4 µM (inactive).
With Cc1ccccc1N1CCN(C(=O)c2ccc(Oc3ccc(C(F)(F)F)cn3)cc2)CC1 the EC50 [12] was 2.32 µM (active), the CC50 [13] was > 40 µM (active) and the EC50 [14] was > 60 µM (not active). The AC50 [15] was 3.43 µM (active) and the EC50 [16] was 5.89 µM (active).
With COc1ccc(NC(=O)CSc2c3c(nc4ccccc24)CCCC3)c(OC)c1 the EC50 [1] was 35.4 µM (not active), the EC50 [2] was > 79.4 µM (not active) and the EC50 [3] was > 79.4 µM (inactive).

Reference: ChEMBL document CHEMBL1201862, “PubChem BioAssay data set” (2004)
